How the values were obtained:
Histamine H3 receptor [1] = biological target: T1, Histamine H3 receptor (Rattus norvegicus, UniProt Q9QYN8); assay: biochemical; type: cell-based, CHO-K1
Description: Inhibition of [125I]iodoproxyfan from rat histamine H3 receptor expressed in CHO-K1 cells

Histamine H3 receptor [2] = biological target: T2, Histamine H3 receptor (Homo sapiens, UniProt Q9Y5N1); assay: biochemical; type: cell-based, CHO-K1
Description: Inhibition of [125I]iodoproxyfan binding to human histamine H3 receptor of CHO-K1 cells

Histamine H3 receptor [3] = biological target: T2, Histamine H3 receptor; assay: Ratio of binding affinity of rat histamine H3 receptor to that of human histamine H3 receptor;1:6
Histamine H3 receptor [4] = biological target: T1, Histamine H3 receptor; assay: Binding affinity to rat Histamine H3 receptor in CHO-K1 cells using [125I]iodoproxyfan as radioligand; type: cell-based
Histamine H3 receptor [5] = biological target: T2, Histamine H3 receptor; assay: Ratio of binding affinity of rat histamine H3 receptor to that of human histamine H3 receptor; 1:3
Histamine H3 receptor [6] = biological target: T2, Histamine H3 receptor; assay: Ratio of binding affinity of rat histamine H3 receptor to that of human histamine H3 receptor; 1:12
Histamine H3 receptor [7] = biological target: T2, Histamine H3 receptor; assay: Ratio of binding affinity of rat histamine H3 receptor to that of human histamine H3 receptor;1:10

T1 sequence (Q9QYN8 whole entry): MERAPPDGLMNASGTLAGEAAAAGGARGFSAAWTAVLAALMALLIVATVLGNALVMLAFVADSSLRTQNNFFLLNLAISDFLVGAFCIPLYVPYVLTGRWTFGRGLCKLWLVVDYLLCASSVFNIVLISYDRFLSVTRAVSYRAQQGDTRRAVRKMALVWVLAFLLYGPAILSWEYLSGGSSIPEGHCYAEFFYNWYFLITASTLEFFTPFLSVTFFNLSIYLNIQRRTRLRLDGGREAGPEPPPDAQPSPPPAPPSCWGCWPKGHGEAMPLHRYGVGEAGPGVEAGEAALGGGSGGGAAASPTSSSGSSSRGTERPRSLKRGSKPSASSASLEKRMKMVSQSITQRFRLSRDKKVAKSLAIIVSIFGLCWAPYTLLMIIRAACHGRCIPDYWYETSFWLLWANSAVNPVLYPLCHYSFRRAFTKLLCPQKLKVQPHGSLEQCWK
T2 sequence (Q9Y5N1 whole entry): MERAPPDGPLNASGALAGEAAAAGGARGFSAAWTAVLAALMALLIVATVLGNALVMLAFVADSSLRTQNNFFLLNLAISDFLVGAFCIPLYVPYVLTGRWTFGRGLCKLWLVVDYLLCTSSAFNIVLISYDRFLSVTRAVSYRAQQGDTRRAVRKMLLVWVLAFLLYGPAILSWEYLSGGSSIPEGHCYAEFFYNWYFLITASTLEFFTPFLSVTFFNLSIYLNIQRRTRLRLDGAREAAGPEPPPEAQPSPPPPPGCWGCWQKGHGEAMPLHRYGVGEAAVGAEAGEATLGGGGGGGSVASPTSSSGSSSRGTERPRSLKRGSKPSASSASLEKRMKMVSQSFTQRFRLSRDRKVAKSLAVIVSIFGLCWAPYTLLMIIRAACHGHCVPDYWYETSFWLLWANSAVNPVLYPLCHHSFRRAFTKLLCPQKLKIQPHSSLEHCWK

Row | Compound | Ki (Histamine H3 receptor [1]) | Ki (Histamine H3 receptor [2]) | further results
1 | CC(=O)c1ccc(SCCCc2c[nH]cn2)cc1 | 44 nM | 18 nM | –
2 | COc1ccc(OCCCc2c[nH]cn2)cc1 | 7.9 nM | 47 nM | Ratio (Histamine H3 receptor [3]): 6
3 | CC(=O)c1ccc(SCCc2cnc[nH]2)cc1 | 0.11 nM | 1.1 nM | –
4 | S=C(NC1CCCCC1)N1CCC(c2cnc[nH]2)CC1 [THIOPERAMIDE] | – | – | Ki (Histamine H3 receptor [4]): 6.5 nM
5 | O=C(c1ccc(OCCCc2cnc[nH]2)cc1)C1CC1 [CIPROXIFAN] | 3.9 nM | – | –
6 | c1ccc(COCCCc2c[nH]cn2)cc1 [PROXYFAN] | 2.9 nM | 2.7 nM | –
7 | c1ccc(OCCCc2c[nH]cn2)cc1 | – | 27 nM | –
8 | CC(=O)c1ccc(OCCc2cnc[nH]2)cc1 | 3.6 nM | 42 nM | –
9 | CC(=O)c1ccc(OCCCc2c[nH]cn2)cc1 | 29 nM | 87 nM | Ratio (Histamine H3 receptor [5]): 3
10 | Ic1ccc(COCCCc2c[nH]cn2)cc1 [IODOPROXYFAN] | 71 nM | 41 nM | –
11 | CC(=O)c1ccc(OCCc2c[nH]cn2)cc1 | – | – | Ratio (Histamine H3 receptor [6]): 12
12 | CC(=O)c1ccc(SCCc2c[nH]cn2)cc1 | – | – | Ratio (Histamine H3 receptor [7]): 10
13 | CC(=O)c1ccc(OCCCCc2cnc[nH]2)cc1 | 36 nM | 19 nM | –

Source: ChEMBL document CHEMBL1134016, “Different antagonist binding properties of human and rat histamine H3 receptors” (Bioorg Med Chem Lett, 2001)
